The results in this text go back to ChEMBL document CHEMBL3217610, “SAR investigations on a novel class of gamma-secretase modulators based on a unique scaffold” (Medchemcomm, 2013).

One may read the IC50 as the concentration needed to halve the response being measured. In general, inhibition refers to the share of the control response that was lost under treatment.

Assay [1] has as its target Gamma-secretase. The experiment in a line: Modulation of gamma-secretase (unknown origin) assessed as inhibition of amyloid beta 42 production. The assay is classed as protein-complex assay, Homo sapiens.
In assay [2] the target is T1, Gamma-secretase (Homo sapiens) (UniProt Q96BI3+Q9NZ42+Q8WW43+P49768+Q92542+P49810). The experiment in a line: Selectivity ratio of IC50 for modulation of gamma-secretase (unknown origin) assessed as inhibition of amyloid beta 40 production to IC50 for modulation of gamma-secretase (unknown origin) assessed as inhibition of amyloid beta 42 production. Format: protein-complex assay.

Assay [3] has as its target T1, Gamma-secretase (Homo sapiens). Nature of the assay: Modulation of gamma-secretase (unknown origin) assessed as inhibition of amyloid beta 40 production at 4 uM relative to control. Format: protein-complex assay.
Assay [4] deals with Gamma-secretase. Nature of the assay: Modulation of gamma-secretase (unknown origin) expressed in CHO cells assessed as inhibition of amyloid beta 40 production. The assay is classed as cell-based, Homo sapiens.
In assay [5] the target is Gamma-secretase. The experiment in a line: Modulation of gamma-secretase (unknown origin) assessed as inhibition of amyloid beta 40 production. The assay is classed as protein-complex assay, Homo sapiens.
Assay [6] addresses Gamma-secretase. Nature of the assay: Modulation of gamma-secretase (unknown origin) expressed in CHO cells assessed as inhibition of amyloid beta 42 production. The assay is classed as cell-based, Homo sapiens.

With `CC(=O)O[C@@H]([C@@H]1C[C@@H](C)[C@H]2[C@H](O1)[C@H](O)[C@@]1(C)[C@@H]3CC[C@H]4C(C)(C)[C@@H](OC(=O)NCCN(C)C)CC[C@@]45C[C@@]35CC[C@]21C)C(C)(C)O`, the concentration for half-maximal inhibition (IC50) on Gamma-secretase [1] was found to be 360 nM. For the same molecule, the Ratio IC50 in assay [2] is greater than 11. The inhibition in assay [3] stood at 23%.

Turning to `CC(=O)O[C@@H]([C@@H]1C[C@@H](C)C2=C(O1)[C@H](O)[C@@]1(C)[C@@H]3CC[C@H]4C(C)(C)[C@@H](O[C@@H]5OC[C@@H](O)[C@H](O)[C@H]5O)CC[C@@]45C[C@@]35CC[C@]21C)C(C)(C)O`, the half-inhibitory concentration (IC50) amounted to 100 nM on Gamma-secretase [1], 6300 nM on Gamma-secretase [4], 2700 nM on Gamma-secretase [5] and 100 nM on Gamma-secretase [6].
